Values belong to the molecule of their own block, whether it stands above or below them.
Experiments:
Test in all cases: kinase panel
Assay type in all cases: biochemical
[1] = target: PDGFRα(h) (Homo sapiens, UniProt P16234)
Outline: (§1)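 % inhibition read-out; kinome panel of 231 kinases; one analogue run on a selected 98-kinase subset only.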

[2] = target: MRCKβ(h) (Homo sapiens, UniProt Q9Y5S2)
Outline: as §1

[3] = target: SRPK1(h) (Homo sapiens, UniProt Q96SB4)
Outline: as §1

[4] = target: NLK(h) (Homo sapiens, UniProt Q9UBE8)
Outline: as §1

[5] = target: Fyn(h) (Homo sapiens, UniProt P06241)
Outline: as §1

[6] = target: TSSK2(h) (Homo sapiens, UniProt Q96PF2)
Outline: as §1

[7] = target: PKBγ(h) (Homo sapiens, UniProt Q9Y243)
Outline: as §1

[8] = target: VRK2(h) (Homo sapiens, UniProt Q86Y07)
Sequence of VRK2(h) (Q86Y07 whole entry): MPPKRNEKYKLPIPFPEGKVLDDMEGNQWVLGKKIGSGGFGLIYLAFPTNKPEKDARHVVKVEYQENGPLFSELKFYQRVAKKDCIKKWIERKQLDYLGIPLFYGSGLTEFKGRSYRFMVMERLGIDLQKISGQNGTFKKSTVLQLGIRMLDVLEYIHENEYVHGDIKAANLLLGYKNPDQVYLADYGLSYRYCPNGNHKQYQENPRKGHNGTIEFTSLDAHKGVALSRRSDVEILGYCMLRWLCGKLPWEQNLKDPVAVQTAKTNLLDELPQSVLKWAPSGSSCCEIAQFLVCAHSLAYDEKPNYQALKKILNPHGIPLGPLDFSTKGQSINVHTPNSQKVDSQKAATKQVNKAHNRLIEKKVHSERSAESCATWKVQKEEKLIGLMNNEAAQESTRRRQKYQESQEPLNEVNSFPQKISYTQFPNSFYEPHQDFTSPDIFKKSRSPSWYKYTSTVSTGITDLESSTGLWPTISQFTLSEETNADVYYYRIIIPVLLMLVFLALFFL
Outline: as §1

[9] = target: IR(h), activated (Homo sapiens, UniProt P06213)
Outline: as §1

[10] = target: PEK(h) (Homo sapiens, UniProt Q9NZJ5)
Outline: as §1

[11] = target: TAO2(h) (Homo sapiens, UniProt Q9UL54)
Sequence of TAO2(h) (Q9UL54 whole entry): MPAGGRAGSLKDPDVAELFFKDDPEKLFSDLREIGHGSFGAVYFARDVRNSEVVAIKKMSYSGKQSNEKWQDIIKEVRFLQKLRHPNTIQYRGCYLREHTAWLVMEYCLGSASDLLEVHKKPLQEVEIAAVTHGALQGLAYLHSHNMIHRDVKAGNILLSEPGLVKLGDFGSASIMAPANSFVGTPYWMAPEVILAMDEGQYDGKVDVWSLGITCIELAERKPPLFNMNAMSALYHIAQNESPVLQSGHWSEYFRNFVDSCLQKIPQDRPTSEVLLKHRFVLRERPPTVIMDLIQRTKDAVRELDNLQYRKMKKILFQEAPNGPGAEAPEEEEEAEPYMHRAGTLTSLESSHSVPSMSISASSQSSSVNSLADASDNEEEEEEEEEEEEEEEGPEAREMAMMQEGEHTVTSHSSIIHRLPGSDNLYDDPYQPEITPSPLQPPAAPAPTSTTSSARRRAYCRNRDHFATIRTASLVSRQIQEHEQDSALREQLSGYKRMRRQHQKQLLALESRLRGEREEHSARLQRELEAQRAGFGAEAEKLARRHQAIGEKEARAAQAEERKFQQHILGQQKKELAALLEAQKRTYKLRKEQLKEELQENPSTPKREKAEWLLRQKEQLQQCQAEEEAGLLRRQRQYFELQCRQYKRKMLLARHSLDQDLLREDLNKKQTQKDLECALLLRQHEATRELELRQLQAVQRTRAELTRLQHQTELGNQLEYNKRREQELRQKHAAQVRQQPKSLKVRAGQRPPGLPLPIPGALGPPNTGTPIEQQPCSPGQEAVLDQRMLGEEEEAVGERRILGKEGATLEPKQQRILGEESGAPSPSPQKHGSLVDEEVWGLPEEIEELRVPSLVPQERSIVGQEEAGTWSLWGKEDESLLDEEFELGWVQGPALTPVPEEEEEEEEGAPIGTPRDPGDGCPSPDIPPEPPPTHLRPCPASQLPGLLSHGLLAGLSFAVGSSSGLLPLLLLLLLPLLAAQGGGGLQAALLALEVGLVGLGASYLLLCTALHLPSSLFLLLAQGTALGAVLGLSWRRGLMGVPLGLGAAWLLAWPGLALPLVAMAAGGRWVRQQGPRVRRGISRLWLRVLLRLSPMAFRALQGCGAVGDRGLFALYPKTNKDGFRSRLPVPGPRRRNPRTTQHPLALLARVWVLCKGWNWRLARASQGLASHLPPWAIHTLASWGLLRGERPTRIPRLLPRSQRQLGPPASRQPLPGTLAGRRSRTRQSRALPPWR
Outline: as §1

[12] = target: EphA7(h) (Homo sapiens, UniProt Q15375)
Sequence of EphA7(h) (Q15375 28-998): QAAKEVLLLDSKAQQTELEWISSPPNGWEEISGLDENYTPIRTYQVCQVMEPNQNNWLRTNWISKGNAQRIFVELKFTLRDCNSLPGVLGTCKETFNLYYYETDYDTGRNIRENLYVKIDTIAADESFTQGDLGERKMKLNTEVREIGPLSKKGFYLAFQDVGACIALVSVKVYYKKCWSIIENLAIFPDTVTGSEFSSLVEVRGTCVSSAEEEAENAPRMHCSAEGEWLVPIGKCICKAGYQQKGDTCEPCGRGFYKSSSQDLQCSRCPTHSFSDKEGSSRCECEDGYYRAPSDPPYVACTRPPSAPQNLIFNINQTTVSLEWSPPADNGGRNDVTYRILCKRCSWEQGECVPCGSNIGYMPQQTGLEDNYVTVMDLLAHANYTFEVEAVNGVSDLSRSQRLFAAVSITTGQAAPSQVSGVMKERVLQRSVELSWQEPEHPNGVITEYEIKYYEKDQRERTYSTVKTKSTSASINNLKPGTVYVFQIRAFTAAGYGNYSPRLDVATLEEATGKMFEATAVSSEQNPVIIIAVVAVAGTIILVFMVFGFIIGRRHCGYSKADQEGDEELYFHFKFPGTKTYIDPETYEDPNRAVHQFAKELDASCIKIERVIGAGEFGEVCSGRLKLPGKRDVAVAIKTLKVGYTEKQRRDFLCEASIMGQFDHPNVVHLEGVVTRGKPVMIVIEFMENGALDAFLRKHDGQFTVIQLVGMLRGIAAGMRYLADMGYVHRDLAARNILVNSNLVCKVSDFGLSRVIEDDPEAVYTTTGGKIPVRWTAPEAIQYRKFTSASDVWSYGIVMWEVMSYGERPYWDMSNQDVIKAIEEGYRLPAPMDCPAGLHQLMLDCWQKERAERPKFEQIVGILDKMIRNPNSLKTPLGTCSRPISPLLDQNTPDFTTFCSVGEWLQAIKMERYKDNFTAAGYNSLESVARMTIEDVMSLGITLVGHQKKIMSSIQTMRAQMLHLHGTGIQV
Outline: as §1

[13] = target: MST3(h) (Homo sapiens, UniProt Q9Y6E0)
Outline: as §1

[14] = target: EphA4(h) (Homo sapiens, UniProt P54764)
Outline: as §1

[15] = target: PKCδ(h) (Homo sapiens, UniProt Q05655)
Outline: as §1

[16] = target: PAK6(h) (Homo sapiens, UniProt Q9NQU5)
Sequence of PAK6(h) (Q9NQU5 whole entry): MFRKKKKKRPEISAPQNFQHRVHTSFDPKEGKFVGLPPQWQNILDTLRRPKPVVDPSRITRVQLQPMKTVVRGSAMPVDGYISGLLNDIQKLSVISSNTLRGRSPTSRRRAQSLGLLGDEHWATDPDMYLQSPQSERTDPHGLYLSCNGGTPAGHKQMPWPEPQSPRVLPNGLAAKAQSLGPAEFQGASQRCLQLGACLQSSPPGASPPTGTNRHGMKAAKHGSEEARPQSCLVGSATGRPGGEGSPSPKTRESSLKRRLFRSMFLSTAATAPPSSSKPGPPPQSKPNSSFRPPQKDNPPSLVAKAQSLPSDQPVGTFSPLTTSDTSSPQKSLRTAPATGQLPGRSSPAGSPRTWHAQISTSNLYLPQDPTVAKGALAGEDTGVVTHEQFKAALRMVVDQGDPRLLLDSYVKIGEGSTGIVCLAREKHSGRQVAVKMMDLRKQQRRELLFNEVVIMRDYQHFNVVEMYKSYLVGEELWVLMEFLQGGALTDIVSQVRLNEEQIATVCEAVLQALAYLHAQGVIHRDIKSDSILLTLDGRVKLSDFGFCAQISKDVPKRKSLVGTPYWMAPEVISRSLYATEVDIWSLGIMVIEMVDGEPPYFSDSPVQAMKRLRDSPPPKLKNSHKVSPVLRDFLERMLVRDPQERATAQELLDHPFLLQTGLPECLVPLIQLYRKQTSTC
Outline: as §1

[17] = target: ULK3(h) (Homo sapiens, UniProt Q6PHR2)
Outline: as §1

[18] = target: Axl(h) (Homo sapiens, UniProt P30530)
Outline: as §1

[19] = target: DRAK1(h) (Homo sapiens, UniProt Q9UEE5)
Sequence of DRAK1(h) (Q9UEE5 whole entry): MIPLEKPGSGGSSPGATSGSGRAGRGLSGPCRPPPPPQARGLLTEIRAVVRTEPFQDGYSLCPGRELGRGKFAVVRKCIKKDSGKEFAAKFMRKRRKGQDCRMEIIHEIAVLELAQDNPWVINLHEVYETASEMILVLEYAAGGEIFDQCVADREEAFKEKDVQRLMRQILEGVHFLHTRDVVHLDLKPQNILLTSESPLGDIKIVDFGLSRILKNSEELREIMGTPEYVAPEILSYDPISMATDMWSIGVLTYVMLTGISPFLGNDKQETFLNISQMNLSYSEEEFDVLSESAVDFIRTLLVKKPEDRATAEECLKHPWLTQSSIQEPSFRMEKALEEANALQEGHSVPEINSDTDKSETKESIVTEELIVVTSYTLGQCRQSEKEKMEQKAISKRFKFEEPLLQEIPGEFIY
Outline: as §1

[20] = target: PTK5(h) (Homo sapiens, UniProt P42685)
Outline: as §1

[21] = target: SIK(h) (Homo sapiens, UniProt P57059)
Outline: as §1

[22] = target: PKCι(h) (Homo sapiens, UniProt P41743)
Sequence of PKCι(h) (P41743 whole entry): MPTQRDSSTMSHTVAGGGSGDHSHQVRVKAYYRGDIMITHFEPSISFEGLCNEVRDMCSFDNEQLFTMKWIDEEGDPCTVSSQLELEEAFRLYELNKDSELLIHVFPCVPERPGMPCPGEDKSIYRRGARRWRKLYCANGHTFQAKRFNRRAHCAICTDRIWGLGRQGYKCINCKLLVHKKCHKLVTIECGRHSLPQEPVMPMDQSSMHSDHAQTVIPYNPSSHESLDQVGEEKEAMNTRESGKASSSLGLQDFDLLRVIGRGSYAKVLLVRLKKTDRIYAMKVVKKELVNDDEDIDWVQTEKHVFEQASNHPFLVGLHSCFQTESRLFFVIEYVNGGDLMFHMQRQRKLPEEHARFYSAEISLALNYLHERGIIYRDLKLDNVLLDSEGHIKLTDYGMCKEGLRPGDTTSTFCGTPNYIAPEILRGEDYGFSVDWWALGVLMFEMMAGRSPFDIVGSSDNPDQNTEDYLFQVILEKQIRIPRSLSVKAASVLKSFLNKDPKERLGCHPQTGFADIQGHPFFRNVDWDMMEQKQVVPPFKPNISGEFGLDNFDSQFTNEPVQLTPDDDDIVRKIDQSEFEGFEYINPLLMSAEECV
Outline: as §1

[23] = target: Plk3(h) (Homo sapiens, UniProt Q9H4B4)
Outline: as §1

[24] = target: Bmx(h) (Homo sapiens, UniProt P51813)
Outline: as §1

[25] = target: SRPK2(h) (Homo sapiens, UniProt P78362)
Outline: as §1

[26] = target: IGF-1R(h), activated (Homo sapiens, UniProt P08069)
Outline: as §1

[27] = target: MSK2(h) (Homo sapiens, UniProt O75676)
Outline: as §1

[28] = target: EphB2(h) (Homo sapiens, UniProt P29323)
Outline: as §1

[29] = target: PKG1β(h) (Homo sapiens, UniProt Q13976)
Outline: as §1

[30] = target: MAPKAP-K3(h) (Homo sapiens, UniProt Q16644)
Outline: as §1

[31] = target: Lck(h) activated (Homo sapiens, UniProt P06239)
Outline: as §1

[32] = target: EphB1(h) (Homo sapiens, UniProt P54762)
Outline: as §1

[33] = target: GRK7(h) (Homo sapiens, UniProt Q8WTQ7)
Outline: as §1

[34] = target: EphA8(h) (Homo sapiens, UniProt P29322)
Outline: as §1

[35] = target: PKCθ(h) (Homo sapiens, UniProt Q04759)
Outline: as §1

[36] = target: PKBβ(h) (Homo sapiens, UniProt P31751)
Outline: as §1

[37] = target: MST1(h) (Homo sapiens, UniProt Q13043)
Outline: as §1

[38] = target: Tie2 (h) (Homo sapiens, UniProt Q02763)
Outline: as §1

[39] = target: LOK(h) (Homo sapiens, UniProt O94804)
Outline: as §1

[40] = target: PhKγ2(h) (Homo sapiens, UniProt P15735)
Outline: as §1

[41] = target: PAK4(h) (Homo sapiens, UniProt O96013)
Outline: as §1

[42] = target: WNK3(h) (Homo sapiens, UniProt Q9BYP7)
Outline: as §1

Sequence of SRPK1(h) (Q96SB4 whole entry): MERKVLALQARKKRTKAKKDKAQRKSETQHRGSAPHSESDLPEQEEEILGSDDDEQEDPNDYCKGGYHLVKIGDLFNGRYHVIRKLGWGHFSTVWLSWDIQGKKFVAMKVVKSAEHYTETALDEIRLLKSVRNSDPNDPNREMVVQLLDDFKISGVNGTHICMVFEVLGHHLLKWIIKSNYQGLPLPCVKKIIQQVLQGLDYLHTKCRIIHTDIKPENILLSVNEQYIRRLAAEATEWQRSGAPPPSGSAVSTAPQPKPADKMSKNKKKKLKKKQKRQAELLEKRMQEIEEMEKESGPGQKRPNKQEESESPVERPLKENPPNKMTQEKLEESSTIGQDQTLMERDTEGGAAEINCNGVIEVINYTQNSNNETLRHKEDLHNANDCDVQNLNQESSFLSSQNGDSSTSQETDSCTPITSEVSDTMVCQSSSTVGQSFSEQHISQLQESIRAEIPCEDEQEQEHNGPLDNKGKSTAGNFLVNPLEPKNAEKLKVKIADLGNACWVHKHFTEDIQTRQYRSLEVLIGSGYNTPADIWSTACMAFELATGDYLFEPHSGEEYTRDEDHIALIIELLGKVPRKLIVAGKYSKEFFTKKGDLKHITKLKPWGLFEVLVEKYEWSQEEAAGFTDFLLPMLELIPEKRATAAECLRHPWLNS

- inhibition at 1 µM [1]: -12%
- inhibition at 1 µM [2]: 4%
- inhibition at 1 µM [3]: 7%
- inhibition at 1 µM [4]: 1%
- inhibition at 1 µM [5]: 33%
- inhibition at 1 µM [6]: -9%
- inhibition at 1 µM [7]: 0%
- inhibition at 1 µM [8]: -11%
- inhibition at 1 µM [9]: 23%
- inhibition at 1 µM [10]: 8%
- inhibition at 1 µM [11]: 7%
- inhibition at 1 µM [12]: -3%
- inhibition at 1 µM [13]: -3%
- inhibition at 1 µM [14]: 2%
- inhibition at 1 µM [15]: 6%
- inhibition at 1 µM [16]: 22%
- inhibition at 1 µM [17]: 14%
- inhibition at 1 µM [18]: 9%
- inhibition at 1 µM [19]: 24%
- inhibition at 1 µM [20]: 29%
- inhibition at 1 µM [21]: 8%
- inhibition at 1 µM [22]: -10%
- inhibition at 1 µM [23]: -7%
- inhibition at 1 µM [24]: 17%
- inhibition at 1 µM [25]: -7%
- inhibition at 1 µM [26]: 32%
- inhibition at 1 µM [27]: -3%
- inhibition at 1 µM [28]: -8%
- inhibition at 1 µM [29]: 1%
- inhibition at 1 µM [30]: -1%
- inhibition at 1 µM [31]: 23%
- inhibition at 1 µM [32]: 14%
- inhibition at 1 µM [33]: -3%
- inhibition at 1 µM [34]: -7%
- inhibition at 1 µM [35]: -14%
- inhibition at 1 µM [36]: -5%
- inhibition at 1 µM [37]: 4%
- inhibition at 1 µM [38]: 18%
- inhibition at 1 µM [39]: 51%
- inhibition at 1 µM [40]: 21%
- inhibition at 1 µM [41]: 37%
- inhibition at 1 µM [42]: 17%
Compound: Nc1n[nH]c2ccc(-c3ccnc4[nH]c(-c5cccc(OCc6ccccc6)c5)cc34)cc12 [Compound 5r [SU1261]]

- inhibition at 1 µM [1]: 8%
- inhibition at 1 µM [2]: -10%
- inhibition at 1 µM [3]: 5%
- inhibition at 1 µM [4]: 51%
- inhibition at 1 µM [5]: 64%
- inhibition at 1 µM [6]: -9%
- inhibition at 1 µM [7]: 12%
- inhibition at 1 µM [8]: 0%
- inhibition at 1 µM [9]: 46%
- inhibition at 1 µM [10]: 10%
- inhibition at 1 µM [11]: 46%
- inhibition at 1 µM [12]: 26%
- inhibition at 1 µM [13]: 6%
- inhibition at 1 µM [14]: 9%
- inhibition at 1 µM [15]: 16%
- inhibition at 1 µM [16]: 32%
- inhibition at 1 µM [17]: 48%
- inhibition at 1 µM [18]: 55%
- inhibition at 1 µM [19]: 67%
- inhibition at 1 µM [20]: 74%
- inhibition at 1 µM [21]: 56%
- inhibition at 1 µM [22]: 3%
- inhibition at 1 µM [23]: -6%
- inhibition at 1 µM [24]: 55%
- inhibition at 1 µM [25]: -5%
- inhibition at 1 µM [26]: 61%
- inhibition at 1 µM [27]: 12%
- inhibition at 1 µM [28]: 12%
- inhibition at 1 µM [29]: 13%
- inhibition at 1 µM [30]: 12%
- inhibition at 1 µM [31]: 44%
- inhibition at 1 µM [32]: 63%
- inhibition at 1 µM [33]: 10%
- inhibition at 1 µM [34]: -2%
- inhibition at 1 µM [35]: 6%
- inhibition at 1 µM [36]: 3%
- inhibition at 1 µM [37]: 33%
- inhibition at 1 µM [38]: 55%
- inhibition at 1 µM [39]: 67%
- inhibition at 1 µM [40]: 50%
- inhibition at 1 µM [41]: 42%
- inhibition at 1 µM [42]: 20%
Compound: Nc1n[nH]c2ccc(-c3ccnc4[nH]c(-c5ccccc5)cc34)cc12 [Compound 4]
